According to patent US20070059688A1, “Gastrointestinal chemosensory receptors” (priority 2001, published 2007):
“Also recorded” adds a separate entry of the source.

Experiments:
IEC-18 cells = assay: [Ca2+]i changes in IEC-18 cells; format: cell-based, rat; details: FIG. 10B: 5 mM denatonium benzoate, vasopressin as positive control
Experimental: (§1) (A) STC-1 cells, grown on cover slips, were washed with a buffer solution (buffer A) consisting of Hanks' balanced salt solution supplemented with 0.03% NaHCO3, 1.3 mM CaCl2, 0.5 mM MgCl2, 0.4 mM MgSO4, and 0.1% BSA. After washing, cells were incubated with […] methyl ester (fura-2/AME) from a stock of 1 mM in DMSO for 30 min at room temperature. Cells were then washed again with buffer A and left at room temperature for an additional 30 min. Each cover slip was placed in a glass cuvette with 2 ml of buffer A, and fluorescence was measured continuously in a Hitachi F-2000 fluorospectrophotometer with excitation wavelength of 340 and 380 nm and an emission wavelength of 510 nm. The bars represent the increase in [Ca^2+]i in response to various concentrations of denatonium benzoate (DB), as indicated. (B) [Ca^2+]i changes in IEC-18 cells, a normal rat intestinal epithelial cell line, after sequential addition of 5 mM denatonium benzoate (DB) followed by 50 nM vasopressin (VP), added as a positive control. (C) [Ca^2+]i changes in Swiss 3T3 cells after sequential addition of 5 mM denatonium benzoate (DB) followed by 10 nM bombesin (Bom), added as a positive control. The changes in [Ca^2+]i in IEC-18 and Swiss 3T3 cells were measured as described above for STC-1 cells.

STC-1 cells [1] = assay: Ca2+ imaging of individual STC-1 cells (fura 2-AM) after bitter tastants; format: cell-based, mouse; details: for [Ca2+]i response in STC-1 cells (in words): single cells, FIG. 9 concentrations: PTC 3 mM, 6-PTU 1 mM, caffeine 10 mM, nicotine 10 mM, cycloheximide 50 μM
Experimental: The [Ca^2+]i of individual cells was measured before and after exposure to single concentrations of bitter tastants. Top panel. […] The values in parenthesis are the number of cells analyzed. Lower panels. Individual traces of [Ca^2+], from two cells exposed to denatonium benzoate or cycloheximide.
Due to heterogeneity of the STC-1 cell population, we monitored responses in the intracellular Ca^2+ concentration ([Ca^2+]i) using Ca^2+ imaging of individual cells and tested the effect of several compounds widely used in bitter taste signaling.
The concentrations of denatonium used in these experiments are similar to those used for eliciting second messenger changes and ion channel activity in taste tissues.
Since a low level of mT2R5 expression was also detected in STC-1 cells, we determined if cycloheximide stimulates a [Ca^2+]i response in these cells.

[2] = target: T1, chimeric mT2R5 receptors containing the NH2-terminal 39 amino acids of rhodopsin (Mus musculus, UniProt Q9JKT4); details: HEK-293 cells; Chandrashekar et al, Cell 100:703-711 (2000); cited from earlier work
T1 construct: host or cells: HEK-293 (heterologous expression)
T1 sequence (Q9JKT4 with tags, fused parts or gaps): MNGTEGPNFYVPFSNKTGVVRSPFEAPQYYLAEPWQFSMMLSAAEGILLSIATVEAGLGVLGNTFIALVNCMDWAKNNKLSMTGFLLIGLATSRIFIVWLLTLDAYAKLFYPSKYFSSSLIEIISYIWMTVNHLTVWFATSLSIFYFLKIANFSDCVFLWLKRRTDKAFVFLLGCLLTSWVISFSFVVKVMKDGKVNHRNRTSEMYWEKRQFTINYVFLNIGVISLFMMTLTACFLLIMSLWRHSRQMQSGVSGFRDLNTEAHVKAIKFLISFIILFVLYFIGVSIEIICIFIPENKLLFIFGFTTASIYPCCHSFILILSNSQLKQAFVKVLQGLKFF

STC-1 cells [3] = assay: [Ca2+]i in STC-1 cells on cover slips, fura-2 fluorospectrophotometry; format: cell-based, mouse; details: various concentrations of denatonium benzoate, FIG. 10A
Experimental: as §1

Structure (SMILES) | [Ca2+]i response in IEC-18 cells (in words) (IEC-18 cells) | [Ca2+]i response in STC-1 cells (in words) (STC-1 cells [1]) | also measured
CCCc1cc(=O)[nH]c(=S)[nH]1 [6-n-propil-2-thiouracil] | not in other well studied cell lines such as IEC-18 or 3T3 | robust [Ca^2+]i responses; also recorded: promoted rapid [Ca^2+]i responses | –
CN1[C@@H]2CC[C@H]1C[C@@H](OC(=O)C(CO)c1ccccc1)C2 (some centres unmarked) [atropine] | – | did not induce any detectable change | –
O=C(O)/C=C/c1ccc(O)c(O)c1 [caffeic acid] | – | did not induce any detectable change | –
Cn1c(=O)c2c(ncn2C)n(C)c1=O [caffeine] | – | robust [Ca^2+]i responses | –
C[C@@H]1C[C@@H]([C@H](O)CC2CC(=O)NC(=O)C2)C(=O)[C@@H](C)C1 [cycloheximide] | not in other well studied cell lines such as IEC-18 or 3T3 | induced oscillatory changes in [Ca^2+]i in a small sub-population of STC-1 cells; also recorded: promoted rapid [Ca^2+]i responses | mT2R5 response, increase in [Ca2+]i (in words) [2]: responds
CC[N+](CC)(CC(=O)Nc1c(C)cccc1C)Cc1ccccc1 [denatonium benzoate] | not in other well studied cell lines such as IEC-18 or 3T3 | rapid and dose-dependent elevation | increase in [Ca2+]i in STC-1 cells (in words) (STC-1 cells [3]): dose-dependent increase; cells with increase in [Ca2+]i (STC-1 cells [1]; 1 mM, percentage of the STC-1 population): 33%; cells with marked increase in [Ca2+]i (STC-1 cells [1]; 10 mM, percentage of STC-1 cells examined): 97%; [Ca2+]i response in STC-1 cells (in words) (STC-1 cells [1]; listed as denatonium): promoted rapid [Ca^2+]i responses
CN1CCCC1c1cccnc1 (centres unmarked) [nicotine] | – | robust [Ca^2+]i responses | –
NC(=S)Nc1ccccc1 [phenylthiocarbamide] | not in other well studied cell lines such as IEC-18 or 3T3 | robust [Ca^2+]i responses; also recorded: promoted rapid [Ca^2+]i responses | –
